How the values were obtained:
Format in all cases: binding
human galectin-1 = target: T1, human galectin-1 (Homo sapiens, UniProt P09382); experiment: competitive fluorescence polarization assay, galectin-1; settings: for Kd: Table 2, average and SEM of 4–8 single-triple point measurements, PBS
T1 construct: made in house
Text: (§1) Human galectin-1 [25], galectin-2 [26], galectin-3 [27], galectin-4N [19], galectin-4C [19], galectin-8N [28], galectin-8C [28], galectin-9N [29], and galectin-9C [30], were expressed and purified as described earlier. Human galectin-7 was expressed using a pET3c plasmid in E. coli BL21-star. The plasmid containing expression optimized DNA encoding the full human galectin-7 sequence (NCBI Reference Sequence: NP_002298.1) was obtained from GenScript (Piscataway, NJ, USA). […] Lactose was removed by chromatography on a PD-10 column (Amersham Biosciences) with repeated ultrafiltration with Centriprep (Amicon).
(§2) Fluorescence polarization experiments were carried out either with a POLARStar plate reader and FLUOstar Galaxy software or with a PheraStarFS plate reader and PHERAstar Mars version 2.10 R3 software (BMG, Offenburg, Germany). The dissociation constant (Kd) values were determined in PBS as described earlier. Specific conditions for galectin-1, 2, 3, 4N, 4C, 8N, 8C, 9N, and 9C were kept as reported. Experiments were performed at room temperature with human galectin-7 at 5 µM and the fluorescent probe β-D-galactopyranosyl-(1–4)-2-acetamido-2-deoxy-β-d-glucopyranosyl-(1–3)-β-d-galactopyranosyl-(1–4)-(N1-fluorescein-5-yl-carbonylaminomethylcarbonyl)-β-D-glucopyranosylamine at 0.02 µM. All the compounds in Table 1 except 32 were dissolved in a neat DMSO at 100 mM and diluted in PBS to three to six different concentrations to be tested in duplicate.

[1] = target: T2, human galectin-4C (C-terminal domain) (Homo sapiens, UniProt P56470); experiment: competitive fluorescence polarization assay, galectin-4C; settings: Table 2, average and SEM, PBS
T2 construct: 4N (N-terminal domain) 4C (C-terminal domain); made in house
T2 sequence (P56470 194-323 limits assumed): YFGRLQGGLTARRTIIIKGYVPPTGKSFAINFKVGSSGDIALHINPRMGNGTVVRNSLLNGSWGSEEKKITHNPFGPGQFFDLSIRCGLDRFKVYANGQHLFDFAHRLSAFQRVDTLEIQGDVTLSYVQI
Text: as §1, §2

[2] = target: T3, human galectin-9N (N-terminal domain) (Homo sapiens, UniProt O00182); experiment: competitive fluorescence polarization assay, galectin-9N; settings: Table 2, average and SEM, PBS
T3 construct: 4N (N-terminal domain) 4C (C-terminal domain), 7, 8N, 8C, 9N, and 9C; made in house
Text: (§3) Human galectin-1 [25], galectin-2 [26], galectin-3 [27], galectin-4N [19], galectin-4C [19], galectin-8N [28], galectin-8C [28], galectin-9N [29], and galectin-9C [30], were expressed and purified as described earlier. Human galectin-7 was expressed using a pET3c plasmid in E. coli BL21-star. The plasmid containing expression optimized DNA encoding the full human galectin-7 sequence (NCBI Reference Sequence: NP_002298.1) was obtained from GenScript (Piscataway, NJ, USA). Bacterial culture and induction, and galectin purification was essential as described for galectin-3 expressed with the same vector [27]; a typical yield was 1.5–2 mg/L culture. Lactose was removed by chromatography on a PD-10 column (Amersham Biosciences) with repeated ultrafiltration with Centriprep (Amicon).
as §2

[3] = target: T4, human galectin-9C (C-terminal domain) (Homo sapiens, UniProt O00182); experiment: competitive fluorescence polarization assay, galectin-9C; settings: Table 2, average and SEM, PBS
T4 construct: 4N (N-terminal domain) 4C (C-terminal domain), 7, 8N, 8C, 9N, and 9C; made in house
Text: as §1, §2

[4] = target: T5, human galectin-4N (N-terminal domain) (Homo sapiens, UniProt P56470); experiment: competitive fluorescence polarization assay, galectin-4N; settings: Table 2; N-terminal domain; average and SEM; PBS
T5 construct: 4N (N-terminal domain) 4C (C-terminal domain); made in house
T5 sequence (P56470 19-150 limits assumed): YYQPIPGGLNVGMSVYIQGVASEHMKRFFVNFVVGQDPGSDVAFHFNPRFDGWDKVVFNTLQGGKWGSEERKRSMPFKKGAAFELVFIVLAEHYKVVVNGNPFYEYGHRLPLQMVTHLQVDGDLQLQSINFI
Text: as §3, §2

human galectin-2 = target: T6, human galectin-2 (Homo sapiens, UniProt P05162); experiment: competitive fluorescence polarization assay, galectin-2; settings: Table 2; average and SEM; PBS
T6 construct: made in house
T6 sequence (P05162 1-132): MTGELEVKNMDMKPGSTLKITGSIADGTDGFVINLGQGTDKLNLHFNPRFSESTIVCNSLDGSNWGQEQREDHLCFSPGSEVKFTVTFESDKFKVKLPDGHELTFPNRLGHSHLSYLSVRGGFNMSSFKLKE
Text: as §3, §2

human galectin-7 = target: T7, human galectin-7 (Homo sapiens, UniProt P47929); experiment: competitive fluorescence polarization assay, galectin-7; settings: Table 2; average and SEM; PBS, room temperature, galectin-7 at 5 µM, probe 0.02 µM
T7 construct: made in house; host or cells: E. coli BL21-star, pET3c plasmid (DNA from GenScript)
Text: as §3, §2

[5] = target: T8, human galectin-8C (C-terminal domain) (Homo sapiens, UniProt O00214); experiment: competitive fluorescence polarization assay, galectin-8C; settings: Table 2, average and SEM, PBS
T8 construct: 4N (N-terminal domain) 4C (C-terminal domain), 7, 8N, 8C, 9N, and 9C; made in house
T8 sequence (O00214 187-317 limits assumed): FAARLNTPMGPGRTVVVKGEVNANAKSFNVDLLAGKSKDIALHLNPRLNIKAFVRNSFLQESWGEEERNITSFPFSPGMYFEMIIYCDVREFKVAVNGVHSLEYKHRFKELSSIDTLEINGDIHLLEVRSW
Text: as §1, §2

human galectin-3 = target: T9, human galectin-3 (Homo sapiens, UniProt P17931); experiment: competitive fluorescence polarization assay, galectin-3; settings: Table 2; average and SEM; PBS
T9 construct: made in house; host or cells: vector pET3c (the same vector as galectin-7)
Text: as §1, §2

[6] = target: T10, human galectin-8N (N-terminal domain) (Homo sapiens, UniProt O00214); experiment: competitive fluorescence polarization assay, galectin-8N; settings: Table 2, average and SEM, PBS
T10 construct: 4N (N-terminal domain) 4C (C-terminal domain), 7, 8N, 8C, 9N, and 9C; made in house
T10 sequence (O00214 19-152 limits assumed): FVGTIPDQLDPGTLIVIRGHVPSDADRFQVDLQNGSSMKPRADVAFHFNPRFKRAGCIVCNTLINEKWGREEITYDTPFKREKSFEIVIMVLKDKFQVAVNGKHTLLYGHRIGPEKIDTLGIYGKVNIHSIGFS
Text: as §1, §2

T7 sequence (P47929 whole entry): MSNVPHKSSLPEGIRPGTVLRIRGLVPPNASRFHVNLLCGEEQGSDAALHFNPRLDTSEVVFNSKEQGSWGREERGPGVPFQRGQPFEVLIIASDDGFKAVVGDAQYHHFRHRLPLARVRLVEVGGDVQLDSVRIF
T1 sequence (P09382 whole entry): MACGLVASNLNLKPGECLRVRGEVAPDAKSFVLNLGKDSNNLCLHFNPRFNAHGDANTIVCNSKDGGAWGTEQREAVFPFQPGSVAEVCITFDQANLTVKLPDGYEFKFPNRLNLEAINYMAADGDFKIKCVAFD
T9 sequence (P17931 whole entry): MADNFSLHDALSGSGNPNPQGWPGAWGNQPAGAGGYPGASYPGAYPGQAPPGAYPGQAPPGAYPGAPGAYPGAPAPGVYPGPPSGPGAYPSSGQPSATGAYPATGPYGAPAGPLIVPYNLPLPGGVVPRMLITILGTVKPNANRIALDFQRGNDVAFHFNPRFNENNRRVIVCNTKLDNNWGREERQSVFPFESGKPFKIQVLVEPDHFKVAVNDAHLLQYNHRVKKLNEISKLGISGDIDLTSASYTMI
T3 sequence (O00182 17-148 limits assumed): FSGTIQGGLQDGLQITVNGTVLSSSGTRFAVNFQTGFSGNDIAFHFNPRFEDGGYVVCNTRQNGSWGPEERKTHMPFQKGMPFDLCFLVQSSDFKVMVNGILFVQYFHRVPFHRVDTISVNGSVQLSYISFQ
T4 sequence (O00182 227-355 limits assumed): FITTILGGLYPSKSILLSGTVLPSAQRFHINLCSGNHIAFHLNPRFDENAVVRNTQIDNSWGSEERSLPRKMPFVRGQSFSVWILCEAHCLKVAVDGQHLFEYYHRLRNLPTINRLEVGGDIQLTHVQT

| Compound | Kd (human galectin-1) [mM] | Kd [1] [mM] | Kd [2] [mM] | Kd [3] [mM] | Kd [4] [mM] | Kd (human galectin-2) [mM] | Kd (human galectin-7) [mM] | Kd [5] [mM] | Kd (human galectin-3) [mM] | Kd [6] [mM] | fold better affinity for galectin-1 than reference methyl β-D-galactopyranoside 32 (human galectin-1; ratio of Kd values) [fold] | binding to galectin-1 (in words) (human galectin-1; under the assay conditions) |
| --- | --- | --- | --- | --- | --- | --- | --- | --- | --- | --- | --- | --- |
| CO[C@@H]1O[C@H](CO)[C@H](O)[C@H](CNC(=O)c2ccc(F)cc2)[C@H]1O [Compound 7e, Methyl 3-Deoxy-3-C-(4-Fluorobenzamidomethyl)-β-D-Galactopyranoside] | 1.7 ± 0.06 | > 4 | > 4 | > 4 | 1.7 ± 0.07 | > 4 | > 4 | > 4 | 1.6 ± 0.03 | > 4 | – | – |
| CO[C@@H]1O[C@H](CO)[C@H](O)[C@H](CNC(=O)c2cc(F)c(F)c(F)c2)[C@H]1O [Compound 7f, Methyl 3-Deoxy-3-C-(3,4,5-Trifluorobenzamidomethyl)-β-D-Galactopyranoside] | 2.5 ± 0.4 | > 4 | > 4 | > 4 | > 4 | > 4 | > 4 | > 4 | > 4 | > 4 | – | – |
| CO[C@@H]1O[C@H](CO)[C@H](O)[C@H](CNC(=O)c2c(F)c(F)c(F)c(F)c2F)[C@H]1O [Compound 7g, Methyl 3-Deoxy-3-C-(2,3,4,5,6-Pentafluorobenzamidomethyl)-β-D-Galactopyranoside] | 0.7 ± 0.005 | > 4 | > 4 | > 4 | > 4 | > 4 | > 4 | > 4 | > 4 | > 4 | 14 | – |
| COc1cccc(C(=O)NC[C@H]2[C@@H](O)[C@@H](CO)O[C@@H](OC)[C@@H]2O)c1 [Compound 7h, Methyl 3-Deoxy-3-C-(3-Methoxybenzamidomethyl)-β-D-Galactopyranoside] | 3.2 ± 0.5 | > 4 | > 4 | > 4 | > 4 | > 4 | > 4 | > 4 | > 4 | > 4 | – | – |
| CO[C@@H]1O[C@H](CO)[C@H](O)[C@H](CNC(=O)c2ccc(C)cc2)[C@H]1O [Compound 7i, Methyl 3-Deoxy-3-C-(p-Toluamidomethyl)-β-D-Galactopyranoside] | 2.3 ± 0.4 | > 4 | > 4 | > 4 | > 4 | > 4 | > 4 | > 4 | > 4 | > 4 | – | – |
| COc1cc(OC)cc(C(=O)NC[C@H]2[C@@H](O)[C@@H](CO)O[C@@H](OC)[C@@H]2O)c1 [Compound 7j, Methyl 3-Deoxy-3-C-(3,5-Dimethoxybenzamidomethyl)-β-D-Galactopyranoside] | 1.8 ± 0.04 | > 4 | > 4 | > 4 | 2 ± 0.4 | > 4 | > 4 | 2.6 ± 0.6 | > 4 | > 4 | – | – |
| CO[C@@H]1O[C@H](CO)[C@H](O)[C@H](CNC(=O)c2cccc(C(F)(F)F)c2)[C@H]1O [Compound 7k, Methyl 3-Deoxy-3-C-(3-Trifluoromethylbenzamidomethyl)-β-D-Galactopyranoside] | 1.8 ± 0.07 | > 4 | > 4 | > 4 | 1.9 ± 0.1 | > 4 | > 4 | > 4 | > 4 | > 4 | – | – |
| CO[C@@H]1O[C@H](CO)[C@H](O)[C@H](CNC(=O)c2ccc(-c3ccccc3)cc2)[C@H]1O [Compound 7l, Methyl 3-Deoxy-3-C-(4-Phenylbenzamidomethyl)-β-D-Galactopyranoside] | > 4 | > 4 | > 4 | > 4 | > 4 | > 4 | > 4 | > 4 | > 4 | > 4 | – | did not bind |

— publication PMC6696278 (International Journal of Molecular Sciences, 2019)
